US20060276464A1, “Diarylsulfone sulfonamides and use thereof” (Wyeth, priority 2005, published 2006)
Where two headings read alike, the source gives them in different places.

Target: T1, SFRP-1 (Homo sapiens, UniProt Q8N474)
T1 sequence (Q8N474 32-314): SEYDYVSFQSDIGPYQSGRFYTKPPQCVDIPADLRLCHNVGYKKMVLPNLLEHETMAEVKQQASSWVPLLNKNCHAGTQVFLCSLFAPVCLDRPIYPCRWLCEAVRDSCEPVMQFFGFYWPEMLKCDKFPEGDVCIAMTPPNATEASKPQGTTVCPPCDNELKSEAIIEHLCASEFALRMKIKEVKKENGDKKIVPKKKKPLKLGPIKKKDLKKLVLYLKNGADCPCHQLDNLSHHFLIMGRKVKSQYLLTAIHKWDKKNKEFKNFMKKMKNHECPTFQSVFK
Experiment: Cell-based assay for in vitro measurement of SFRP-1/SARP2 antagonist activity (U2OS cells co-transfected with 16x TCF-tk-Luciferase reporter, Wnt and hSFRP-1);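 note: U2OS cells co-transfected with a TCF-tk luciferase reporter, a Wnt vector, hSFRP-1 or empty vector and CMV-βgal, luciferase luminescence read in cell lysates alongside βgal activity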

[1] = U2OS, read-out: Fold Induction with SFRP-1, Conc 15 μM, with SFRP-1, fold induction over SFRP-1 control, single dose
[2] = U2OS, read-out: Fold Induction without SFRP-1, Conc 15 μM, without SFRP-1, single dose
[3] = U2OS, read-out: Fold Induction with SFRP-1, Conc 30 μM, with SFRP-1, fold induction over SFRP-1 control, single dose
[4] = U2OS, read-out: Fold Induction without SFRP-1, Conc 30 μM, without SFRP-1, single dose
[5] = U2OS, read-out: Fold Induction with SFRP-1, Conc 15 μM, single dose, luciferase reporter, fold induction over SFRP-1 control, cells with SFRP-1
[6] = U2OS, read-out: Fold Induction without SFRP-1, Conc 15 μM, single dose, luciferase reporter, cells without SFRP-1 (specificity control)
[7] = U2OS, read-out: Fold Induction with SFRP-1, Conc 20 μM, with SFRP-1, fold induction over SFRP-1 control, single dose
[8] = U2OS, read-out: Fold Induction without SFRP-1, Conc 20 μM, without SFRP-1, single dose

SMILES	fold induction at 15 µM [1]	fold induction at 15 µM [2]	further results
CC(=O)c1ccc(S(=O)(=O)c2ccc(C)c(S(=O)(=O)NCCc3ccccn3)c2)cc1 [Example 403, 5-[(4-acetylphenyl)sulfonyl]-2-methyl-N-(2-pyridin-2-ylethyl)benzenesulfonamide]	2.5	1.1	–
Cc1ccc(S(=O)(=O)c2ccccc2)cc1S(=O)(=O)NCCc1ccccc1F [Example 53, N-[2-(2-fluorophenyl)ethyl]-2-methyl-5-(phenylsulfonyl)benzenesulfonamide]	–	–	Fold Induction with SFRP-1 (Conc 30 μM, with SFRP-1, fold induction over SFRP-1 control, single dose): 1.2 fold; Fold Induction without SFRP-1 (Conc 30 μM, without SFRP-1, single dose): 0.6 fold; fold induction at 30 µM [3]: 1; fold induction at 30 µM [4]: 0.4
Cc1ccc(S(=O)(=O)c2ccccc2)cc1S(=O)(=O)NCCC(=O)NC1CCCc2ccccc21 (stereo not drawn) [Example 667, N^3-{[2-methyl-5-(phenylsulfonyl)phenyl]sulfonyl}-N-(1,2,3,4-tetrahydronaphthalen-1-yl)-β-alaninamide]	–	–	fold induction at 10 µM (U2OS, read-out: Fold Induction with SFRP-1, U2OS cells, single dose 10 μM, luciferase reporter, fold induction over SFRP-1 control): 0.9
CC(C)c1ccc(S(=O)(=O)c2ccc(F)cc2)cc1S(=O)(=O)NCCO [Example 582, 5-[(4-fluorophenyl)sulfonyl]-N-(2-hydroxyethyl)-2-isopropylbenzenesulfonamide]	–	–	fold induction at 15 µM [5]: 2.6; fold induction at 15 µM [6]: 1
CCc1ccc(S(=O)(=O)c2ccccc2)cc1S(=O)(=O)NCCc1ccccc1OC [Example 142, 2-ethyl-N-[2-(2-methoxyphenyl)ethyl]-5-(phenylsulfonyl)benzenesulfonamide]	3.2	1.3	–
Cc1ccc(S(=O)(=O)c2ccc(Cl)cc2)cc1S(=O)(=O)NC[C@H](C)c1ccccc1 [Example 257, 5-[(4-chlorophenyl)sulfonyl]-2-methyl-N-[(2R)-2-phenylpropyl]benzenesulfonamide]	–	–	fold induction at 20 µM [7]: 2.4; fold induction at 20 µM [8]: 1
COc1ccc(S(=O)(=O)c2ccccc2)cc1S(=O)(=O)NCCc1c[nH]cn1 [Example 236, N-[2-(1H-imidazol-4-yl)ethyl]-2-methoxy-5-(phenylsulfonyl)benzenesulfonamide]	1.2	1	–
O=S(=O)(NCCCn1ccnc1)c1cccc(S(=O)(=O)c2ccccc2)c1 [Example 199, N-[3-(1H-imidazol-1-yl)propyl]-3-(phenylsulfonyl)benzenesulfonamide]	–	–	fold induction at 30 µM [3]: 1.1; fold induction at 30 µM [4]: 1
Cc1ccc(S(=O)(=O)c2ccccc2)cc1S(=O)(=O)NCCc1cccc(F)c1 [Example 52, N-[2-(3-fluorophenyl)ethyl]-2-methyl-5-(phenylsulfonyl)benzenesulfonamide]	–	–	fold induction at 30 µM [3]: 1.4; fold induction at 30 µM [4]: 0.7
Cc1ccc(S(=O)(=O)c2ccc(C(C)C)cc2)cc1S(=O)(=O)NCCCn1ccnc1 [Example 338, N-[3-(1H-imidazol-1-yl)propyl]-5-[(4-isopropylphenyl)sulfonyl]-2-methylbenzenesulfonamide]	1.2	1	–
CCc1ccc(S(=O)(=O)c2ccccc2)cc1S(=O)(=O)NCCc1ccccc1F [Example 147, 2-ethyl-N-[2-(2-fluorophenyl)ethyl]-5-(phenylsulfonyl)benzenesulfonamide]	3.2	1	–
Cc1ccc(S(=O)(=O)c2ccc(F)cc2)cc1S(=O)(=O)N[C@H]1C[C@@H]1c1ccccc1 [Example 250, 5-[(4-fluorophenyl)sulfonyl]-2-methyl-N-[(1S,2R)-2-phenylcyclopropyl]benzenesulfonamide]	–	–	fold induction at 20 µM [7]: 1.4; fold induction at 20 µM [8]: 0.9
CCCc1ccc(S(=O)(=O)c2ccccc2)cc1S(N)(=O)=O [Example 557, 5-(Phenylsulfonyl)-2-propylbenzenesulfonamide]	–	–	fold induction at 15 µM [5]: 1.4; fold induction at 15 µM [6]: 1.2
CCc1ccc(S(=O)(=O)c2ccc(F)cc2)cc1S(=O)(=O)NCC(O)c1ccccc1 (centres unmarked) [Example 388, 2-ethyl-5-[(4-fluorophenyl)sulfonyl]-N-(2-hydroxy-2-phenylethyl)benzenesulfonamide]	2.2	1.1	–
COc1ccccc1S(=O)(=O)c1ccc(C)c(S(=O)(=O)NCCCn2ccnc2)c1 [Example 316, N-[3-(1H-imidazol-1-yl)propyl]-5-[(2-methoxyphenyl)sulfonyl]-2-methylbenzenesulfonamide]	2.5	1.1	–
Cc1ccc(S(=O)(=O)c2ccc(C#N)cc2)cc1S(=O)(=O)NCCc1ccccn1 [Example 428, 5-[(4-cyanophenyl)sulfonyl]-2-methyl-N-(2-pyridin-2-ylethyl)benzenesulfonamide]	1.3	0.8	–
Cc1ccc(S(=O)(=O)c2ccc(Cl)cc2)cc1S(=O)(=O)N[C@H]1C[C@@H]1c1ccccc1 [Example 256, 5-[(4-chlorophenyl)sulfonyl]-2-methyl-N-[(1S,2R)-2-phenylcyclopropyl]benzenesulfonamide]	–	–	fold induction at 20 µM [7]: 1.2; fold induction at 20 µM [8]: 1
CCOc1cc(CCNS(=O)(=O)c2cc(S(=O)(=O)c3ccccc3)ccc2CC)ccc1OC [Example 148, N-[2-(3-ethoxy-4-methoxyphenyl)ethyl]-2-ethyl-5-(phenylsulfonyl)benzenesulfonamide]	2.8	1.1	–
COc1ccc(S(=O)(=O)c2ccccc2)cc1S(=O)(=O)NCCc1ccncc1 [Example 235, 2-methoxy-5-(phenylsulfonyl)-N-(2-pyridin-4-ylethyl)benzenesulfonamide]	1.2	0.9	–
CCc1ccc(S(=O)(=O)c2ccccc2)cc1S(=O)(=O)NCCc1ccccc1 [Example 141, 2-ethyl-N-(2-phenylethyl)-5-(phenylsulfonyl)benzenesulfonamide]	3.3	1	–
C[C@H](CNS(=O)(=O)c1cccc(S(=O)(=O)c2ccccc2)c1)c1ccccc1 [Example 263, N-[(2S)-2-phenylpropyl]-3-(phenylsulfonyl)benzenesulfonamide]	0.8	1.1	–
Cc1ccc(S(=O)(=O)c2ccc(F)cc2)cc1S(=O)(=O)NCCc1ccncc1 [Example 165, 5-[(4-fluorophenyl)sulfonyl]-2-methyl-N-(2-pyridin-4-ylethyl)benzenesulfonamide]	3.3	1	–
C#CCN(CCc1ccccc1F)S(=O)(=O)c1cc(S(=O)(=O)c2ccc(C)cc2)ccc1C [Example 277, N-[2-(2-fluorophenyl)ethyl]-2-methyl-5-[(4-methylphenyl)sulfonyl]-N-prop-2-ynylbenzenesulfonamide]	1.8	1	–

Second part, led by results:

fold induction at 15 µM [1]	fold induction at 15 µM [2]	SMILES	further results
2.9	1.1	Cc1cc(S(=O)(=O)c2ccccc2)cc(S(=O)(=O)NCCn2ccnc2)c1C [Example 347, N-[2-(1H-imidazol-1-yl)ethyl]-2,3-dimethyl-5-(phenylsulfonyl)benzenesulfonamide]	–
2.2	1.3	Cc1ccc(S(=O)(=O)c2ccccc2)cc1S(=O)(=O)NCCN1CCCCC1 [Example 209, 2-methyl-5-(phenylsulfonyl)-N-(2-piperidin-1-ylethyl)benzenesulfonamide]	–
3.6	1.3	Cc1ccc(S(=O)(=O)c2ccccc2)cc1S(=O)(=O)NCCCN(C)C [Example 216, N-[3-(dimethylamino)propyl]-2-methyl-5-(phenylsulfonyl)benzenesulfonamide]	–
3.2	1.5	Cc1ccc(S(=O)(=O)c2ccccc2)cc1S(=O)(=O)NCCN(C)C [Example 214, N-[2-(dimethylamino)ethyl]-2-methyl-5-(phenylsulfonyl)benzenesulfonamide]	–
1.1	0.9	COc1ccc(S(=O)(=O)c2ccccc2)cc1S(=O)(=O)NCCN1CCOCC1 [Example 237, 2-methoxy-N-(2-morpholin-4-ylethyl)-5-(phenylsulfonyl)benzenesulfonamide]	Fold Induction with SFRP-1 (Conc 15 μM, with SFRP-1, fold induction over SFRP-1 control, single dose): 1.4 fold
2	1.1	CCc1ccc(S(=O)(=O)c2ccccc2)cc1S(=O)(=O)N1CCN(CC(=O)N2CCCC2)CC1 [Example 285, 1-{[2-ethyl-5-(phenylsulfonyl)phenyl]sulfonyl}-4-(2-oxo-2-pyrrolidin-1-ylethyl)piperazine]	–
2	1.1	Cc1ccc(S(=O)(=O)c2ccc(F)cc2)cc1S(=O)(=O)NCCCN1CCN(C)CC1 [Example 179, 5-[(4-fluorophenyl)sulfonyl]-2-methyl-N-[3-(4-methylpiperazin-1-yl)propyl]benzenesulfonamide]	–
